Test results: ChEMBL document CHEMBL1157539, “Thousands of chemical starting points for antimalarial lead identification” (Nature, 2010)

Test system: Plasmodium falciparum
Assay: GSK_TCMDC: Inhibition of Plasmodium falciparum 3D7 in whole erythrocytes, using parasite LDH activity as an index of growth.
Assay type: functional, organism-based
Conditions: Plasmodium falciparum, 3D7

Cc1nc(N)nc(N)c1-c1cccc(Cl)c1
XC50: 1170 nM

CC(C)CCN1C(=O)C(NC(=O)Oc2ccccc2)C(=O)N(CC23CC4CC(CC(C4)C2)C3)c2ccccc21 (stereo unspecified)
XC50: 752 nM

CC1(C(=O)Nc2ccc([N+](=O)[O-])cc2O)CC2c3ccccc3C1c1ccccc12 (stereo unspecified)
XC50: 715 nM

CCC1CN2CCc3cc(OC)c(OC)cc3C2CC1CC1NCCc2cc(OC)c(OC)cc21 (stereo unspecified)
XC50: 145 nM

N#Cc1cccc(-c2cccc(C(=O)NC3CCC(CCN4CCc5ccc(C#N)cc5CC4)CC3)c2)c1 (stereo unspecified)
XC50: 265 nM

COc1ccc2nc3cc(Cl)ccc3c(NCCCN3CCNCC3)c2c1
XC50: 232 nM

CCOC(=O)C1=C(C)N=c2sc(=Cc3cc(Cl)ccc3O)c(=O)n2C1c1ccc(OC)cc1 (stereo unspecified)
XC50: 746 nM

COc1cc(NC(=O)c2sc(-c3ccc(Cl)cc3)cc2NC(=O)c2cccc(N(C)C)c2)ccc1OCCN1CCCC1
XC50: 709 nM

CCCN(CCC)CCOC(=O)C(OCC)(c1ccccc1)c1ccccc1
XC50: 871 nM

COc1ccc2nccc(N3CCC(NCCNS(=O)(=O)c4ccc5c(c4)NC(=O)CS5)C3)c2n1 (stereo unspecified)
XC50: 901 nM

COc1cc2nc(N3CCC(CNC(=O)c4ccc(NC(=O)c5ccc(Cl)cc5)cc4)CC3)nc(N)c2cc1OC
XC50: 264 nM

Cc1cc(Cl)ccc1NC(=O)Nc1ccc2nccc(N3CCN(C)CC3)c2c1
XC50: 394 nM

CCNc1cc(C(=O)N[C@@H](Cc2ccccc2)[C@H](O)CN[C@@H](C)c2ccccc2)cc(N2CCCC2=O)c1
XC50: 666 nM

CN1CCCc2cc(NC(=O)C=Cc3ccc(-c4ccc(F)cc4F)o3)ccc2C1
XC50: 783 nM

CS(=O)(=O)c1ccc(OCCCN(Cc2ccccc2C(F)(F)F)c2ccc(C#N)c(C(F)(F)F)c2)cc1
XC50: 1020 nM

O=C(N[C@@H](CC1CCCCC1)C(=O)NC1CCCc2ccccc21)c1ccc(O)c(-c2cccc(C(F)(F)F)c2)c1 (stereo partly specified)
XC50: 600 nM

CC(C)NCc1ccc(-c2ccc(NC(=O)c3cccc(C#N)c3)cc2)cc1
XC50: 654 nM

N=C(N)NC(=O)Nc1cc(Br)c(Cl)c(Br)c1
XC50: 765 nM

CCCc1cc(OC)c(C[C@H]2c3cc(O)c(Cl)cc3CCN2C)cc1OC
XC50: 576 nM

COc1ccc2nccc([C@@H](O)CN3CCC(NCc4cc5cccc(O)c5[nH]4)CC3)c2c1
XC50: 836 nM

Clc1ccc(-c2cc(-c3csc(NCCN4CCOCC4)n3)on2)c(Cl)c1
XC50: 660 nM

O=C(/C=C/c1ccc(Cl)c(Cl)c1)NC1CCN(Cc2cccc(O)c2)CC1
XC50: 880 nM

CCCNCc1ccc(-c2ccc(CN(CCOC)C(=O)c3ccccc3)cc2)nc1
XC50: 876 nM

Cc1ccc(Nc2nc(C)cc(NC3CC3)n2)cc1
XC50: 1220 nM

Clc1ccc(C2CCN(CCCOc3ccc4c(c3)CCNCC4)CC2)cc1
XC50: 754 nM

CCc1cn2c3c(cc(C(=O)N[C@@H](Cc4ccccc4)[C@H](O)CNC4CC4)cc13)N(CC)S(=O)(=O)CC2
XC50: 112 nM

O=C(Nc1cccc(CN2CCCN(Cc3ccc(O)cc3)CC2)c1)c1ccc(Br)cc1
XC50: 800 nM

CC(C)C[C@H]1C(=O)N[C@H](C2Cc3ccccc3C2)C(=O)N1[C@@H](C(=O)Nc1ccccc1OCc1ccccc1)c1ccc(F)cc1F
XC50: 1020 nM

c1cc(CN2CCCCC2)cc(-c2ccc(-c3nc4ccccc4[nH]3)s2)c1
XC50: 869 nM

CCN(CC)CCNc1ccnc2[nH]c3ccc(I)cc3c12
XC50: 230 nM

CCN(CC)/C(=N\CCCCCC/N=C(\NC(=N)c1ccc(Cl)cc1)N(CC)CC)NC(=N)c1ccc(Cl)cc1
XC50: 381 nM

CC(C)(C)C1CC(=O)CC2C(=O)N(C3CCCCC3)C(=O)C21 (stereo unspecified)
XC50: 421 nM

CCOc1ccc(C(=O)Nc2cc3c(c(C(F)(F)F)c2)CCNC3)cc1Cl
XC50: 1060 nM

COc1cc(Cc2cnc(N)nc2N)ccc1OCc1ccc(NC(C)=O)cc1
XC50: 368 nM

CC(C)c1ccc(NC(=O)Nc2ccc(Cn3ncc(N4CCCNCC4)c(Cl)c3=O)cc2)cc1
XC50: 1050 nM

O=C(/C=C/c1ccc(C(F)(F)F)cc1)NCCCCCN1CCN(C(=O)Nc2ccc(F)c(Cl)c2)CC1
XC50: 1210 nM

O=C(Nc1ccc(OC2CCN(Cc3ccsc3)C2)c(Cl)c1)c1ccsc1 (stereo unspecified)
XC50: 1020 nM

Cc1cc(C)c(NC(=O)NC2CCN(CCCCCNC(=O)/C=C/c3ccc(Cl)c(Cl)c3)CC2)c(C)c1
XC50: 797 nM

CC(C)(C)c1ccc(CN2CCC(NC(=O)c3ccc(-c4ccccc4Cl)s3)CC2)cc1
XC50: 1350 nM

CC(C)COc1ccc(Cl)cc1Cc1ccc(-c2nc3ccc(F)cc3[nH]2)o1
XC50: 854 nM

Clc1ccc2c(NCCCCCCCCNc3ccnc4cc(Cl)ccc34)ccnc2c1
XC50: 482 nM

O=C(NC(c1ccccc1)c1ccc2cccnc2c1O)c1ccccc1 (stereo unspecified)
XC50: 428 nM

O=C(C=Cc1ccc(F)cc1)NC1CCC(CCN2CCc3ccc(-c4cnccn4)cc3CC2)CC1 (stereo unspecified)
XC50: 695 nM

CCCOc1cccc(C(=O)N[C@@H](Cc2ccccc2)[C@H](O)CNCc2ccccc2OC)c1
XC50: 883 nM

CCNC(=O)NC1CCN(Cc2c(-c3cccs3)nc3ccccc3c2C(=O)N[C@@H](C)C2CCCCC2)CC1
XC50: 91.3 nM

CC(Cc1ccc(OCCOc2ccccc2)cc1)NCC(O)c1cccc(Cl)c1 (stereo unspecified)
XC50: 1040 nM

CC(C)N1CCN(C(CN2CCN(CCCOc3cccc(F)c3)CC2)c2ccc(F)cc2)CC1 (stereo unspecified)
XC50: 912 nM

CCCN1CCN(CC(O)CNC(=O)Nc2ccc(Cl)cc2)CC1 (stereo unspecified)
XC50: 96.9 nM

Fc1cccc(C=NNc2ccnc3cc(Cl)ccc23)c1
XC50: 528 nM

O=C(NC1CC1c1ccccc1)N(CCCn1ccnc1)Cc1csc(-c2ccc(CNCc3ccccc3)cc2)n1 (stereo unspecified)
XC50: 854 nM

Cc1cc(O)c(CN2CCN(Cc3cccs3)CC2)cc1C(C)C
XC50: 716 nM

NC1CCN(c2nc(NCCCc3ccc(O)cc3)nc(NCc3ccccc3-c3ccc(C(F)(F)F)cc3)n2)CC1
XC50: 727 nM

CCc1cccc(-n2c(=O)c3cccnc3n2CC(=O)NCc2ccccc2Cl)c1
XC50: 741 nM

COc1ccc(-c2cccc(NC(=O)c3cccc(Cl)c3)c2)cc1CN1CCN(C)CC1
XC50: 760 nM

COc1c(C2=CCN(CCCCNC(=O)c3ccc(-c4ccc(C#N)cc4)cc3)CC2)ccc2c1CCCC2
XC50: 911 nM

CC/N=C(/NCCCCCCN/C(=N/CC)NCc1ccccc1)NCc1ccccc1
XC50: 702 nM

O=C(Nc1ccc(Cl)cc1)c1ccc(CN2CCCN(Cc3cccc(O)c3)CC2)cc1
XC50: 388 nM

CCCCCCN1CCN(Cc2cccc(NC(=O)c3cc4ccccc4s3)c2)CC1
XC50: 912 nM

O=C(NCCCN1CCCC1=O)c1cnc(N2CCC(Oc3ccccc3)CC2)c(Cl)c1
XC50: 305 nM

COc1ccc(-c2cccc(NC(=O)c3cccc(C#N)c3)c2)cc1CN1CCCC1
XC50: 748 nM

O=C(C=Cc1ccc(-c2nc3ccccc3[nH]2)cc1)NC1CCN(Cc2ccccc2)CC1
XC50: 740 nM

O=C(Nc1ccc(-c2nc3ccccc3[nH]2)cc1)c1ccc(-c2cccc([N+](=O)[O-])c2)o1
XC50: 267 nM

CN(C)c1ccc(-c2csc(C(=O)NC3CCN(CCC(C)(C)C)C3)c2)cc1 (stereo unspecified)
XC50: 971 nM

Nc1ccc2c(N)c3ccccc3nc2c1
XC50: 812 nM

O=C(/C=C/c1ccc(Cl)c(Cl)c1)NCCCCCCN1CCCN(C(=O)Nc2cc(Cl)cc(Cl)c2)CC1
XC50: 780 nM

O=C(NC1CCC(CN2CCC(c3c[nH]c4ccccc34)CC2)CC1)c1cc(-c2cccc(Cl)c2)n(-c2ccc(Cl)cc2Cl)n1 (stereo unspecified)
XC50: 1080 nM

COc1ccc(Nc2nccc(N3CCC(NC(=O)c4cccc(C#N)c4)C3)n2)cc1 (stereo unspecified)
XC50: 819 nM

O=C(Cc1c[nH]cn1)Nc1ccc(-c2cccc(-c3nc4cc(C(F)(F)F)ccc4[nH]3)c2)cc1
XC50: 742 nM

CC(C)CN(c1nc(C(=O)NNC(=O)[C@H](CC2CC2)NC(=O)c2cc3cc(OCCN(C)C)ccc3o2)cs1)C1CC1
XC50: 1030 nM

Cc1cc(N[C@@H](CC(C)C)C(=O)NCCCOC(C)C)nc(NCCc2ccc(F)cc2)n1
XC50: 1250 nM

O=C1NC(C(=O)Nc2ccccc2)C(c2ccccc2)S1 (stereo unspecified)
XC50: 168 nM

O=C(Nc1ccc(Cn2ncc(N3CCCNCC3)c(Cl)c2=O)cc1)Nc1cccc(C(F)(F)F)c1
XC50: 640 nM

Brc1cc(Br)c2c(c1)C(NCCCNC1CCNc3c(Br)cc(Br)cc31)CCN2 (stereo unspecified)
XC50: 823 nM

CCCC1N=C(N)N=C(N)N1c1ccccc1 (stereo unspecified)
XC50: 823 nM

COc1cccc(CNC[C@@H](O)[C@H](Cc2ccccc2)NC(=O)c2cc(OC(C)C)cc(N3CCCCS3(=O)=O)c2)c1
XC50: 730 nM

O=C(NC1CCN(Cc2cccc(C(F)(F)F)c2)CC1)c1ccc(-c2cccc(C(F)(F)F)c2)s1
XC50: 1010 nM

CN(c1ccc2c(c1)nc(Nc1ccc(Cl)cc1)n2C)c1ccnc(Nc2ccc(CS(C)(=O)=O)cc2)n1
XC50: 758 nM

COc1ccc(CCC(C)(C)NCC(O)c2cccc(C(F)(F)F)c2)cc1 (stereo unspecified)
XC50: 480 nM

CC(=O)C1(c2ccccc2)CCN(CCC2(c3ccc(Cl)c(Cl)c3)CN(C(=O)CC(C)C)CCO2)CC1 (stereo unspecified)
XC50: 644 nM

CCC(CC)N1CCN(CC(=O)Nc2ccc([N+](=O)[O-])cc2C(=O)Nc2cccc(OC)c2)CC1
XC50: 866 nM

CN(C)CCc1coc2ccc(C(=O)Nc3ccc(-c4ccc(O)cc4)cc3)cc12
XC50: 1080 nM

CC(=O)Nc1ccc(CNCCc2ccc(NC(=O)c3cc(Cl)cc(Cl)c3)cc2)cc1
XC50: 684 nM

Clc1cc(Cl)c2cc(CN[C@H]3CCC[C@@H]3CNc3nc4ccccc4[nH]3)[nH]c2c1
XC50: 275 nM

COc1ccc2nc3cc(Cl)ccc3c(NCCNCC(O)CO)c2n1 (stereo unspecified)
XC50: 152 nM

COC(=O)C(=C(C)C)N1C(=O)[C@@H](NC(=O)OCc2ccccc2)[C@H]1SS[C@@H]1[C@H](NC(=O)OCc2ccccc2)C(=O)N1C(C(=O)OC)=C(C)C
XC50: 434 nM

O=C(/C=C/c1ccc([N+](=O)[O-])cc1)N1CCC(NS(=O)(=O)c2ccc(Br)cc2)CC1
XC50: 1050 nM

CCCc1ccc(NC(=O)c2ccc(CN3CCCN(CC4CCCCC4)CC3)cc2)cc1
XC50: 524 nM

CC1(C)NC(N)=NC(=N)N1OCCCc1cc(Cl)c(Cl)cc1Cl
XC50: 3.2 nM

Cc1cc(CNCC(CCNc2cc(=O)c3ccccc3[nH]2)NCc2cc(Br)cc(Br)c2)oc1C (stereo unspecified)
XC50: 894 nM

O=C(Nc1cccc(-c2cccc(-c3nc4cc(F)ccc4[nH]3)c2)c1)c1c[nH]cn1
XC50: 459 nM

Fc1ccc2[nH]c(-c3ccc(-c4ccc(CNCc5ccccc5)cc4)cc3)nc2c1
XC50: 284 nM

c1ccc(CN2CCC(NCc3ccc(-c4cccc(CNC5CCCC5)c4)cc3)CC2)cc1
XC50: 339 nM

O=C(NCC1CCC(C(=O)NC2CCCc3ccccc32)CC1)c1ccc(O)c(-c2cccc([N+](=O)[O-])c2)c1 (stereo unspecified)
XC50: 942 nM

O=S(=O)(NCCN1CCCC1)c1ccc(-c2ccc(CNCc3ccccc3)cc2)cc1F
XC50: 1290 nM

Cc1cccc2nc(-c3ccc(-c4ccc(NC(=O)Nc5ccsc5)cc4)cc3)[nH]c12
XC50: 171 nM

COCCNCc1cccc(-c2ccc3c(Nc4ccc(F)cc4Cl)ccnc3c2)c1
XC50: 680 nM
